Measured values taken from US9174951B2, “Glucose transporter inhibitors” (The Ohio State University Research Foundation, priority 2012, dated 2015).

Tests used:
Format in all cases: cell-based
GLUT9 = molecular target: T1, GLUT9 (Homo sapiens, UniProt Q9NRM0); test: [3H]2-DG uptake into LNCaP cells overexpressing GLUT9; settings: for inhibition at 5 µM: LNCaP cells transfected with GLUT9, 30 min
T1 construct: The full length GLUT1, GLUT4, and GLUT9 ORF cDNA clones were purchased from Addgene; EGFP (from the pEGFP-N2 vector); host or cells: LNCaP
T1 sequence (Q9NRM0 1-540): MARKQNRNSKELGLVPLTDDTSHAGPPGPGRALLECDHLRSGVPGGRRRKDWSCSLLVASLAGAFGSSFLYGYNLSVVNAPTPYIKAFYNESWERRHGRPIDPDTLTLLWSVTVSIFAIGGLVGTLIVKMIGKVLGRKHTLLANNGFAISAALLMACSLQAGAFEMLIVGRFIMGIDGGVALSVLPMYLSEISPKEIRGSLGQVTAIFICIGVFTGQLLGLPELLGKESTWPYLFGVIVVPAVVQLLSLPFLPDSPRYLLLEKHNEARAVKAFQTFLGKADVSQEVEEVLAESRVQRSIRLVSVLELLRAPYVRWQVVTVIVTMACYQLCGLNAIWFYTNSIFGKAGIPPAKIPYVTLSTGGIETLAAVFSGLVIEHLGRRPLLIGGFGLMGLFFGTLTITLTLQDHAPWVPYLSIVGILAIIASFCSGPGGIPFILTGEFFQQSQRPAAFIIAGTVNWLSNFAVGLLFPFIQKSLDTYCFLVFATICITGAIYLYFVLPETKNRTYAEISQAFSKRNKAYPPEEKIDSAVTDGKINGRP
Description: (§1) As information regarding the expression pattern of individual GLUT members in LNCaP cells was lacking, quantitative real time polymerase chain reaction (qRT-PCR) was used to assess the mRNA levels of the hypoxia-responsive GLUT1 and GLUT3, and three other representative GLUT members, including the class I GLUT2 and GLUT4 and the class II GLUT9. Among these five members, LNCaP cells expressed GLUT1 and, to a much lesser extent, GLUT9, while the mRNA levels of GLUTs2-4 were negligible (FIG. 3B). To examine the isoform specificity of these inhibitors, LNCaP cells were ectopically transfected with plasmids encoding GLUT1, GLUT3, GLUT4, or GLUT9 vis-à-vis the pCMV control vector so that the increased glucose uptake in GLUT-transfected cells relative to pCMV control cells was indicative of the activity of the ectopically expressed GLUT protein.
(§2) Glucose Uptake Assay. LNCaP cells were seeded in six-well plates (3×10^5 cells/well) for 24 h. Cells were washed twice with Krebs-Ringer phosphate buffer (126 mM NaCl, 2.5 mM KCl, 25 mM NaHCO3, 1.2 mM NaH2PO4, 1.2 mM MgCl2, 2.5 mM CaCl2, pH 7.4) and were then treated with individual agents in Krebs-Ringer phosphate buffer. After 1.5 h, glucose uptake was initiated by adding 1 mL Krebs-Ringer buffer containing […] [^3H]2-DG (PerkinElmer Life Science) and […] non-radioactive 2-DG and was terminated by washing with cold PBS. The cells were lysed in […] lysis buffer (10 mM Tris-HCl pH 8.0, 0.1% SDS) and aliquots were taken for measurement of radioactivity using a scintillation counter (Beckman LS6500).
Plasmid Construction, Transient Transfection and Immunoblotting. The full length GLUT1, GLUT4, and GLUT9 ORF cDNA clones were purchased from Addgene (Cambridge, Mass.) and GLUT3 ORF cDNA was purchased from Origene Technologies (Rockville, Md.). GLUT1, GLUT3, and GLUT9 were subcloned into the HindIII/SalI sites and GLUT4 was subcloned into the EcoRI/SalI sites of pEGFP-N2 expression vector (Clontech, Palo Alto, Calif.). […]

GLUT1 = molecular target: T2, GLUT1 (Homo sapiens, UniProt P11166); test: [3H]2-DG uptake into LNCaP cells overexpressing GLUT1; settings: for IC50: LNCaP cells overexpressing GLUT1, read-out: IC50 in inhibiting GLUT1-mediated [3H]2-DG uptake; for inhibition at 5 µM: LNCaP cells transfected with GLUT1, 30 min
T2 construct: The full length GLUT1, GLUT4, and GLUT9 ORF cDNA clones were purchased from Addgene; EGFP (from the pEGFP-N2 vector); host or cells: LNCaP
T2 sequence (P11166 1-492): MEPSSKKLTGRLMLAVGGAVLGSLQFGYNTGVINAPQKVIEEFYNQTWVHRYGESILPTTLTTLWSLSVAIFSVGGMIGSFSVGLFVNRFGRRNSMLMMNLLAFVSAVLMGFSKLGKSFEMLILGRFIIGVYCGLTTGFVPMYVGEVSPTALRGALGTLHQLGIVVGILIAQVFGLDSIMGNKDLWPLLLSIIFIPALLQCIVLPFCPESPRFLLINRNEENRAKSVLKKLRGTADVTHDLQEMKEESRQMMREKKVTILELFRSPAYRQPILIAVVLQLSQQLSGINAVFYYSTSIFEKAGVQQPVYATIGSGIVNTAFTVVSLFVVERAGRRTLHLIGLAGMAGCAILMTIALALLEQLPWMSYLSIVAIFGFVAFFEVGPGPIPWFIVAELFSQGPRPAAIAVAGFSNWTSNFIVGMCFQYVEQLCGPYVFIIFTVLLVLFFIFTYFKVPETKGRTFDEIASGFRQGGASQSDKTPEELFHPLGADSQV
Description: as §1, §2
Plasmid Construction, Transient Transfection and Immunoblotting. The full length GLUT1, GLUT4, and GLUT9 ORF cDNA clones were purchased from Addgene (Cambridge, Mass.) and GLUT3 ORF cDNA was purchased from Origene Technologies (Rockville, Md.). GLUT1, GLUT3, and GLUT9 were subcloned into the HindIII/SalI sites and GLUT4 was subcloned into the EcoRI/SalI sites of pEGFP-N2 expression vector (Clontech, Palo Alto, Calif.). Transfections were performed by electroporation using Nucleofector kit R of the Amaxa Nucleofector system (Lonza, Walkersville, Md.) according to the manufacturer's protocol. Immunoblotting was performed using cells lysates harvested with SDS lysis buffer (1% SDS, 50 mM Tris-HCl pH 8.0, 10 mM EDTA) containing 1× protease inhibitor cocktail (Sigma) and phosphatase inhibitor and were electrophoresed in 8˜12% SDS polyacrylamide gels and then transferred onto nitrocellulose membranes. After blotting in 5% nonfat dry milk, the membranes were incubated with primary antibodies at 1:1,000 dilution in TBS-Tween 20 overnight at 4° C., and then secondary antibodies conjugated with horseradish peroxidase at 1:5,000 dilution in TBS-Tween 20 for 1 hour at room temperature. […]

AsPC1 cells = test: MTT cell viability assay, AsPC1; settings: Homo sapiens, 72 h, 10% FBS
Experimental: (§3) Cell Viability Assay. Cell viability was determined using the 3-(4,5-dimethylthiazol-2-yl)-2,5-diphenyltetrazolium bromide (MTT) assay. Cancer cells were seeded at 5000 cells/well and normal cells were seeded at 8000 cells/well in 96-well plates and incubated in 10% FBS-supplemented medium for 24 h. Cells were then treated with individual agents for 72 h. Drug-containing medium was replaced with medium containing MTT (0.5 mg/mL), followed by incubation at 37° C. for 1 h. After removal of medium, the reduced MTT dye in each well was solubilized in 100 μL of DMSO and absorbance at 570 nm was measured.
(§4) Compound 30 was evaluated for antiproliferative activity in panels of different human cancer cells lines, including those of prostate, breast and pancreatic cancers. In all experiments, cells were treated with a range of concentrations of Compound 30 in the presence of 10% fetal bovine serum (FBS). Cell viability was then determined after 72 h of treatment using the 3-(4,5-dimethylthiazol-2-yl)-2,5-diphenyltetrazolium bromide (MTT) assay. […] It is noteworthy that despite this high antiproliferative potency, normal human prostate epithelial cells (PrECs) were resistant to the cytotoxic effect of Compound 30 even at 10 μM.

Cal-51 cells = test: MTT cell viability assay, Cal-51; settings: Homo sapiens, 72 h, 10% FBS
Experimental: as §3, §4

Row | inhibition at 5 µM (GLUT9) | IC50 (GLUT1) | inhibition at 5 µM (GLUT1) | IC50 (AsPC1 cells) | IC50 (GLUT9; LNCaP cells overexpressing GLUT9, read-out: IC50 for GLUT9-mediated [3H]2-DG uptake) | Structure (SMILES) | IC50 (Cal-51 cells)
1 | 26% | 5 µM | 53% | – | – | CCC(CC)CN1C(=O)S/C(=C\c2ccc(O)c(C(F)(F)F)c2)C1=O [Compound 5] | –
2 | 34% | 2 µM | 73% | ~5 µM | ≥ 5 µM | CC(CN1C(=O)S/C(=C\c2ccc(O)c(C(F)(F)F)c2)C1=O)(CC(F)(F)F)CC(F)(F)F [Compound 30, 5-(4-Hydroxy-3-trifluoromethyl-benzylidene)-3-[4,4,4-trifluoro-2-methyl-2-(2,2,2-trifluoro-ethyl)-butyl]-thiazolidine-2,4-dione] | 1.7 µM
